From US9809640B2, “ApoE peptide dimers and uses thereof” (priority 2010, dated 2017)
Positions of bridges follow the written chain, without caps; N, C: chain ends. Chains are numbered I, II in the order given.

What was measured:
B-CLL cells = assay: Cytotoxicity on patient-derived B-CLL cells (MTS assay)
From the text: FIG. 5A: Dose response curves for COG449 cytotoxicity on CLL cells from 4 leukemia patients. Human CLL cells were isolated from blood samples and assayed for COG449 cytotoxicity. […] FIG. 5B: Dose response curves for COG445 on CLL cells from 7 patients or normal B-cells from 5 patients. Human CLL cells and PBMC were isolated and assayed for cytotoxicity of COG445.
Blood from CLL patients was collected and CD5+/CD19+ CLL cells were isolated using the RosetteSep™ Human B-Cell Enrichment Cocktail, according to the manufacturer's instructions, and treated with COG compounds. Compounds were applied to B-CLL cells (2.5×10^5 cells/well in a 96 well plate), after which the cells were treated for 72 hours.
Normal B-cells from volunteers and B-CLL cells from patients are isolated using the RosetteSep™ Human B Cell Enrichment Cocktail according to the manufacturer's instructions. This method depletes whole blood of T cells, monocytes, and NK cells using a proprietary antibody cocktail that cross-links unwanted cells in human whole blood to multiple red blood cells (RBCs) forming immunorosettes. This increases the density of the unwanted (rosetted) cells, such that they pellet along with the free RBCs when centrifuged over a buoyant density medium such as Ficoll-Paque®. This leaves the highly enriched B-cell or B-CLL cells at the interface between Ficoll and the plasma. The antibodies in the cocktail contain […] and anti-CD16 antibodies to remove T cells, monocytes, and NK cells, respectively. The purity of these B-cell and B-CLL preparations is then determined by flow cytometry.
For cytotoxicity assays, 3×10^6 CLL cells/well are cultured in 24 well tissue culture plates in 1.5 mL of Hybridoma SFM™ (Gibco, Long Island, N.Y.) as described by Levesque et al. (2001, 2003). All cultures are incubated at 37° C., 5% CO2 in air.

[1] = system: MDA-MB-231 breast cancer cells; type: cell-based; settings: MB231, ~24 hours
Experimental: FIG. 14A: Dose response curve of COG445 on proliferation of U87 (open circles) and MDA-MB-231 (filled circles) cells as measured by MTT reduction. FIG. 14B: Dose response curve of COG445 on proliferation of MDA-MB-231 cells as measured by cell count.
Next, we examined the potency of an ApoE peptide dimer versus the monomeric form on proliferation of the MDA-MB-231 breast cancer cell line. MDA-MB-231 cells were treated with various concentrations of either COG435 (monomer; SEQ ID NO: 90) or COG493 (a BMOE-linked dimer of COG 435) peptides for 48 hours. Following peptide treatment, cells were quantified using a MTT assay.
Because COG445 inhibited Akt activation and downstream signaling, we examined the effects of COG445 on cellular proliferation. Adherent MB231 and U87 cells were grown for ˜24 hours in the presence of COG445 and cellular proliferation was measured by MTT reduction. […] Furthermore, COG445 inhibited MB231 cellular proliferation as determined by cell count (FIG. 14B). Approximately 6×10^4 cells were plated in growth media (RPMI+10% FBS) for 24-hours with increasing concentrations of COG445. […] However at concentrations ≧1 μM COG445, there appears to be a loss of cells. This is partially explained by decreased proliferation, although it is possible that the rate of cellular degradation was increased in the presence of COG445.

c-myc = assay: Total c-myc protein levels, Western blot; type: cell-based
From the text: FIG. 12A: Total PP2A activity immunoprecipitated from MDA-MB-231 cells treated with EGF and increasing concentrations of COG445. FIG. 12B: Western blot and densitometry analysis of total c-myc protein levels in U87 cells treated with the indicated concentrations of COG445 in the presence or absence of okadaic acid. FIG. 12C: Immunoprecipitation of the catalytic subunit of PP2A from MDA-MB-231 cells exposed to EGF and two different concentrations of COG445. The blot is probed for I2PP2A (SET) and PP2A catalytic subunit.
To further characterize the effect of COG445 on PP2A activity, MB231 cells were treated as above and the phosphatase activity of immunoprecipitated PP2A was measured. EGF stimulation caused a significant decrease in total PP2A activity compared to untreated serum starved cells (FIG. 12A). […] To further explore the extent of PP2A activation in response to COG445, total c-myc protein levels were determined by western blot analysis. C-myc is a substrate for PP2A and upon dephosphorylation is metabolized by ubiquitination and proteasomal degradation. In both U87 (FIG. 12B) and MB231 (data not shown) cell lines, c-myc levels decreased after a two-hour exposure to COG445 in a dose-dependent manner, reaching statistical significance at 1000 nM.

PP2A = PP2A activity in 32D:BCR/Abl chronic myelogenous leukemia cells (PP2A immunoprecipitation assay); type: cell-based; settings: 1 μM, 32D:BCR/Abl cells
Experimental: FIGS. 4A-4B. The BMOE-linked dimer peptide COG449 activates PP2A in CML cells. FIG. 4A: 32D-BCR/Abl chronic myelogenous leukemia cells were treated with COG449 (1 μM), COG445 (1 μM) (disulfide-linked COG112 dimer) or no treatment, and the PP2A activity was measured. FIG. 4B: 32D:BCR/Abl cell cultures were treated with no compound, 1 μM COG449, or 5 μM FTY720 for 30 minutes followed by lysis in an NP40 lysis buffer. PP2A was immunoprecipitated and assayed with the PP2A Immunoprecipitation assay kit (Upstate) according to the manufacturer's directions.
To further evaluate the effect of COG449, we measured the ability of the stable dimerized COG449 compound to activate PP2A in 32D:p210^BCR/Abl chronic myelogenous leukemia cells. […] 32D:p210^BCR/Abl chronic myelogenous leukemia cells were treated with no compound, 1 μM COG449, or 5 μM FTY720. We observed a robust increase of approximately 45% relative specific activity (phosphate release/minute/unit protein) of PP2A upon treatment with COG449 alone when compared to the untreated control, and about 20% activation compared with FTY720 (FIG. 4B).

## I: Ac-RQIKIWFQNRRMKWKKCLRVRLASHLRKLRKRLL-NH2 / II: Ac-RQIKIWFQNRRMKWKKCLRVRLASHLRKLRKRLL-NH2 (disulfide I:17-II:17) [COG445, COG112-C-C-COG112]
B-CLL cells; CLL EC50 relative to COG056 (rev133) = 1.0
  Fold Change: 117.3
B-CLL cells; read-out: ED50 for cytotoxicity of CLL cells, purified disulfide dimer, dimer molecular weight
  EC50: 110 nM
[1]
  proliferation by MTT reduction: dose-dependent decrease
c-myc
  c-myc levels in the presence of OA: unaltered
c-myc; two-hour exposure, U87 and MB231, significant at 1000 nM
  c-myc levels: decreased
PP2A
  phosphate release due to activation of PP2A relative to untreated control cells: increased phosphate release
